{"source": "the supplement of paper PMC10307832", "experiment_in_all_cases": "relative viability (nuclei count vs DMSO), 5 days (fraction); higher = more cells survive", "key": {"Tivantinib + Crizotinib": {"compound": "O=C1NC(=O)[C@@H](c2cn3c4c(cccc24)CCC3)[C@@H]1c1c[nH]c2ccccc12 [Tivantinib] + C[C@@H](Oc1cc(-c2cnn(C3CCNCC3)c2)cnc1N)c1c(Cl)ccc(F)c1Cl [Crizotinib] (partner 1 µM)", "outline": "(§1)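 Lung cancer cell lines were seeded in 1536-well plates and dosed by pin tool the next day, with either a single drug or a fixed anchor-drug dose combined with five library-drug doses (not always all listed) spaced in √10 steps. Five days later, one step fixed the cells and stained their nuclei (final 0.05% Triton X-100, 1% formaldehyde, 1 ug/ml Hoechst), and nuclei were counted on 4× images. Relative viability is the nuclei count in treated wells divided by the count in vehicle wells, and each value is the median of duplicate plates.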"}, "Tivantinib + Bortezomib": {"compound": "O=C1NC(=O)[C@@H](c2cn3c4c(cccc24)CCC3)[C@@H]1c1c[nH]c2ccccc12 [Tivantinib] + CC(C)C[C@H](NC(=O)[C@H](Cc1ccccc1)NC(=O)c1cnccn1)B(O)O [Bortezomib] (partner 0.002 µM)", "outline": "as §1"}, "Crenolanib + Foretinib": {"compound": "CC1(COc2ccc3c(c2)ncn3-c2ccc3cccc(N4CCC(N)CC4)c3n2)COC1 [Crenolanib] + COc1cc2c(Oc3ccc(NC(=O)C4(C(=O)Nc5ccc(F)cc5)CC4)cc3F)ccnc2cc1OCCCN1CCOCC1 [Foretinib] (partner 0.25 µM)", "outline": "as §1"}, "Crenolanib + Tozasertib": {"compound": "CC1(COc2ccc3c(c2)ncn3-c2ccc3cccc(N4CCC(N)CC4)c3n2)COC1 [Crenolanib] + Cc1cc(Nc2cc(N3CCN(C)CC3)nc(Sc3ccc(NC(=O)C4CC4)cc3)n2)n[nH]1 [Tozasertib] (partner 0.1 µM)", "outline": "as §1"}}}
{"cell line": "UMC-11", "values": [{"measurement": "relative viability", "setting": "Tivantinib + Crizotinib; first compound 0.01 µM", "value": 0.662}, {"measurement": "relative viability", "setting": "Tivantinib + Crizotinib; first compound 0.03162 µM", "value": 0.601}, {"measurement": "relative viability", "setting": "Tivantinib + Crizotinib; first compound 0.1 µM", "value": 0.637}, {"measurement": "relative viability", "setting": "Tivantinib + Crizotinib; first compound 0.3162 µM", "value": 0.531}, {"measurement": "relative viability", "setting": "Tivantinib + Bortezomib; first compound 0.01 µM", "value": 0.678}, {"measurement": "relative viability", "setting": "Tivantinib + Bortezomib; first compound 0.03162 µM", "value": 0.734}, {"measurement": "relative viability", "setting": "Tivantinib + Bortezomib; first compound 0.1 µM", "value": 0.551}, {"measurement": "relative viability", "setting": "Tivantinib + Bortezomib; first compound 0.3162 µM", "value": 0.969}, {"measurement": "relative viability", "setting": "Crenolanib + Foretinib; first compound 0.01 µM", "value": 1.07}, {"measurement": "relative viability", "setting": "Crenolanib + Foretinib; first compound 0.03162 µM", "value": 1.11}, {"measurement": "relative viability", "setting": "Crenolanib + Foretinib; first compound 0.1 µM", "value": 0.95}, {"measurement": "relative viability", "setting": "Crenolanib + Foretinib; first compound 0.3162 µM", "value": 1.21}, {"measurement": "relative viability", "setting": "Crenolanib + Foretinib; first compound 1 µM", "value": 0.947}, {"measurement": "relative viability", "setting": "Crenolanib + Tozasertib; first compound 0.01 µM", "value": 0.193}, {"measurement": "relative viability", "setting": "Crenolanib + Tozasertib; first compound 0.03162 µM", "value": 0.207}, {"measurement": "relative viability", "setting": "Crenolanib + Tozasertib; first compound 0.1 µM", "value": 0.213}, {"measurement": "relative viability", "setting": "Crenolanib + Tozasertib; first compound 0.3162 µM", "value": 0.189}, {"measurement": "relative viability", "setting": "Crenolanib + Tozasertib; first compound 1 µM", "value": 0.192}]}
